Starred links: 1 amine or outer side, 2 acyl side, 3 side chain; linkers in the order of their positions; H or OH if unused. Positions of bridges follow the written chain, without caps; N, C: chain ends. Non-standard residues stand in square brackets, D forms with d. Residues, ends and D or L forms follow the SMILES beside them. ξ: configuration not given here. *: point of attachment. ξOrn(4,5-diOH) = O=C(C(CC(O)C(O)N[*:3])N[*:1])[*:2]; ξhTyr(βξ-OH,γξ-OH) = NC(C(=O)O)C(O)C(O)c1ccc(O)cc1; ξPro(3ξ-OH,4ξ-Me) = CC1CNC(C(=O)O)C1O; X2 = NC(=O)CC(O)C(N[*:1])C(=O)[*:2]; X1 = CCC(C)CC(C)CCCCCCCCC(=O)*; Hyp = O=C(O)[CH]1C[CH](O)CN1
How the values were obtained:
[1] = solubility in organic solvents; details: methanol, ethanol, dimethylformamide, dimethyl sulfoxide, ethyl acetate and the like
[2] = system: filamentous fungi Cochliobolus miyabeanus, Penicillium sp. (three strains), Aspergillus niger, Trichoderma sp., Trichoderma liqnorum, Alternaria solani …; assay: disc diffusion method, filamentous fungi; format: cell-based; details: 25 microliter/disc, 28° C. or 37° C., 24 hours
Description: (§1) This may be seen in an antifungal assay employing a disc diffusion method against yeasts and filamentous fungi (molds).
(§2) In the disc diffusion method, seeded assay plates are first prepared in one of the following manners according to the type of organism.
Inocula for filamentous fungi are prepared by scraping the surface of stock plates maintained on potato dextrose agar with a moistened sterile dacron swab. The spores and mycelia are then suspended in 10 milliliters of sterile potato dextrose broth and adjusted to 70 percent transmission at 660 nm.
(§3) For three strains of Candida albicans and one strain of Saccharomyces cerevisiae, sterile saline is employed in place of potato dextrose broth. Assay plates are prepared by diluting the inoculum into appropriate molten agar medium, cooled to 45° C. to obtain a final concentration of 4 percent (volume/volume).
(§4) The seeded agar media thus prepared are dispensed into petri dishes for assays (11 milliliters per dish).
(§5) The samples to be tested for production of antifungal agent are applied to 6.2 mm. filter paper discs (25 microliter/disc) and air dried at 24° C. When the sample to be tested is a crude broth, it may be centrifuged prior to application. […] Following incubation, the inhibition zones are measured and recorded.

Candida albicans [3] = assay: agar dilution assay (MIC), Candida albicans; format: cell-based; details: C. albicans strain MY1029; possible media interference with drug activity
Description: (§6) The activity may be seen in an agar dilution assay employing a yeast nitrogen base dextrose agar medium. In carrying out the assay, Compound I was solubilized in 10 percent dimethyl sulfoxide (DMSO) supplemented with one drop of Tween 20. Twofold dilutions were made with sterile distilled water/10 percent DMSO to obtain final drug concentrations in the agar dilution assay plates ranging from 128 to 0.06 μg/ml.
(§7) The yeast cultures, maintained in yeast maltose (YM) broth, were transferred to fresh YM medium and incubated overnight at 35° C. with shaking (250 rpm). After incubation, each culture was diluted in sterile saline to yield a final concentration of 3×10^5 to 3×10^6 colony forming units (CFU)/ml.
(§8) Each prepared plate was inoculated using a Denley Multipoint Inoculator (Denley, Sussex, England) which delivers approximately 0.001 milliliter to the ar surface resulting in inoculation of from 3×10^2 to 3×10^3 CFUs. The plates were incubated at 28° C. for 48 hours. The minimum inhibitory concentrations (MICs) were recorded as the lowest concentrations of drug showing no growth or less than three CFU/spot.

[4] = system: yeasts Saccharomyces cerevisiae, Candida albicans, Candida rugosa, Brettanomyces bruxellensis, Torulospora hansenii, Candida guilliermondii, Candida …; assay: disc diffusion method, yeasts; format: cell-based; details: 25 microliter/disc, 28° C. or 37° C., 24 hours
Description: as §1, §2
Inocula for yeasts are prepared from overnight broth cultures then diluted into potato dextrose […] to a final concentration of either 40 percent or 70 percent transmission at 660 nm.
as §3, §4
as §5, with “application. The discs bearing the material to be tested are then applied employing sterile conditions to the seeded assay plates and the samples rewet with 25 percent sterile aqueous dimethylsulfoxide (25 μl/disc).” for “application.”

in vitro = format: cell-based; details: mouse; fresh blood of CD-1 female mice; 25° C., two hours; highest drug concentration that did not lyse the red blood cells; tested 0.39 to 400 μg/ml in 5 percent dextrose; read-out: minimum lytic concentration (MLC)
Description: The property of Compound I of requiring concentration of drug far above the therapeutic dose levels to effect red blood cell lysis was discovered in a standard titration/hemolysis assay using fresh blood drawn from CD-1 female mice. Concentration of drug in the range of from 0.39 to 400 μg/ml in 5 percent dextrose and a drug free control were employed.
In carrying out the determination, the assay tubes prepared by mixing together 2 milliliters of appropriate drug dilution and 0.5 milliliter of red blood cell suspension were gently shaken to mix the contents and then the tubes were incubated at 25° C. for two hours. At the end of this time, the tubes were examined visually for complete or partial red blood cell hemolysis and compared to a drug free control. […] The MLC for Compound I was 400 μg/ml.

Candida albicans [5] = assay: mice infected with Candida albicans; format: in vivo
Candida albicans [6] = assay: similar assay (MIC), expanded panel of 34 strains of Candida albicans; format: cell-based; details: 48 h; only against 5 of 34 strains of Candida albicans
Description: as §6, §7, §8
In a similar assay, Compound I was tested against an expanded panel of 34 different strains of Candida albicans and 13 different strains of Candida parapsilosis.

CCC(C)CC(C)CCCCCCCCC(=O)NC1CC(O)C(O)NC(=O)C2C(O)C(C)CN2C(=O)C(C(O)CC(N)=O)NC(=O)C(C(O)C(O)c2ccc(O)cc2)NC(=O)C2CC(O)CN2C(=O)C(C(C)O)NC1=O [Compound I, 1-[(4R, 5R)-4,5-dihydroxy-N^2-(10,12-dimethyl-1-oxotetradecyl)-L-ornithine]-5-(threo-3-hydroxy-L-glutamine)echinocandin B] (X1-[ξOrn(4,5-diOH)]T[Hyp][ξhTyr(βξ-OH,γξ-OH)][X2][ξPro(3ξ-OH,4ξ-Me)]; lactam 1-C; configuration not given here)
solubility in organic solvents [1]: soluble | antifungal properties (inhibition zones) [2]: good antifungal properties | growth observed (footnote to MIC) (Candida albicans [3]): Substantially reduced growth was observed | antifungal properties (inhibition zones) [4]: good antifungal properties | MNTC at 2 h (in vitro): 400 µg/mL | eradication of Candida albicans from kidneys (Candida albicans [5]; kidneys of experimentally infected mice): eradicate Candida albicans from kidneys | survival of mice infected with Candida albicans (Candida albicans [5]; mice infected with Candida albicans): significantly prolong the survival | MIC (Candida albicans [6]): > 1 mg/L

Source: patent US4931352A, “Antifungal fermentation product” (Merck & Co., Inc., priority 1989, dated 1990)
